Holding throughout (assay type): biochemical
Conditions in all cases: from PDE inhibition data of Table 1

The target in assay [1] is PDE3 from human platelets (Homo sapiens, UniProt Q14432). The assay is described as follows: PDE3 enzyme assay.
The test system of a further assay is bovine PDE1. The assay is described as follows: PDE1 enzyme assay.
In the next assay the target is human PDE2 (Homo sapiens, UniProt O00408). The assay is described as follows: PDE2 enzyme assay.
In assay [2] the target is T1, PDE6 from bovine retinal rod outer segments (Bos taurus, UniProt P11541+P23439).
T1 construct: PDE6 from bovine retinal rod outer segments; from tissue; host or cells: bovine retinal rod outer segments
T1 sequence (P11541 2-856 limits assumed): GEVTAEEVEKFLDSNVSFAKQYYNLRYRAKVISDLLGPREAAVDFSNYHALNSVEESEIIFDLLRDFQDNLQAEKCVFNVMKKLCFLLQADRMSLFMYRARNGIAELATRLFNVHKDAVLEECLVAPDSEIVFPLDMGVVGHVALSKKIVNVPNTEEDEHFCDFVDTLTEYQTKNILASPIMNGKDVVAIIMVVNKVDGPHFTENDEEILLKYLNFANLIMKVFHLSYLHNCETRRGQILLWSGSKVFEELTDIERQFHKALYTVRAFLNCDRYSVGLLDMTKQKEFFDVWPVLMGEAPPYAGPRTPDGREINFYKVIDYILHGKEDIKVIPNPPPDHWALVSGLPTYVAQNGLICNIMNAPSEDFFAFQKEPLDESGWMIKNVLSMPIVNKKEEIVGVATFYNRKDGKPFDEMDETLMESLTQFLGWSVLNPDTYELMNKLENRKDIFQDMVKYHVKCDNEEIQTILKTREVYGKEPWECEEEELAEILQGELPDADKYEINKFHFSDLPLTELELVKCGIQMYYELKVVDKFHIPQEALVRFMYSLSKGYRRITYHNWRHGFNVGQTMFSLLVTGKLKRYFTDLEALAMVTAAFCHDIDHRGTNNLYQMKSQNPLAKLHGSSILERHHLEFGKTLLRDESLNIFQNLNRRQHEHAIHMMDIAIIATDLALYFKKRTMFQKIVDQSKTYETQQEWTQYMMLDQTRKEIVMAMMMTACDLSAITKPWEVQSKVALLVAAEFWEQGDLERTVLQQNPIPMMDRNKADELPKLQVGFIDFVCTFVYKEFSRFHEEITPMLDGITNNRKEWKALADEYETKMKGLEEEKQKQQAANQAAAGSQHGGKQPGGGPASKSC
T1 sequence (P23439 2-850 limits assumed): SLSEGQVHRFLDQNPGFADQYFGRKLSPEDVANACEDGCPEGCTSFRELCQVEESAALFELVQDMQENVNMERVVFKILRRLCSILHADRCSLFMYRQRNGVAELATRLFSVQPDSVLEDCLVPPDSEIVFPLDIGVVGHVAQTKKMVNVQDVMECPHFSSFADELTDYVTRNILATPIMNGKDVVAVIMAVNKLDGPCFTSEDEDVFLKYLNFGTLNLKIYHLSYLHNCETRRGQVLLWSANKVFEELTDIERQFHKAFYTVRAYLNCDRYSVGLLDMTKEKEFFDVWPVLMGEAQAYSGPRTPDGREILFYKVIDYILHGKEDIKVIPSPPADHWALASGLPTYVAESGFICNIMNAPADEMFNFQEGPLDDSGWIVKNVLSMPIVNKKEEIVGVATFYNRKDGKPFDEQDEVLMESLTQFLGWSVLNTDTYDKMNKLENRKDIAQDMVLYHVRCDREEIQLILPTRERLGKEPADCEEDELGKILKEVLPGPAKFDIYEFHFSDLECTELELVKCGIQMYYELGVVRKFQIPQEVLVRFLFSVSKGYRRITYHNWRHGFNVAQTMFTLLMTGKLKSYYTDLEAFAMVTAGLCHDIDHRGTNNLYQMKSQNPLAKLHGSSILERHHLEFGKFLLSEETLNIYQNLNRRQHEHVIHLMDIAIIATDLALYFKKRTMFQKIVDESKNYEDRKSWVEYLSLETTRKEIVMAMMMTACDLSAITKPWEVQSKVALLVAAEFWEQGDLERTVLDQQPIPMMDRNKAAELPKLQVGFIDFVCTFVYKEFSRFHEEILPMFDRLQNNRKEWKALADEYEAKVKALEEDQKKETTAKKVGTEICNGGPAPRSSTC
The assay is described as follows: PDE6 enzyme assay.

Assay [3] addresses PDE5 from human platelets (Homo sapiens, UniProt O76074). The assay is described as follows: PDE5 enzyme assay.
The target in assay [4] is PDE7 purified from Hut78 human T cells (Homo sapiens, UniProt Q13946). The assay is described as follows: PDE7 enzyme assay. The procedure: PDE7 is a cAMP-selective PDE expressed mainly in T cells and in skeletal muscle. T cell-derived cytokines such as IL-2 and IFN-γ are potentially regulatable via PDE7 inhibition. […] Compounds were tested against the PDE7 preparation in the presence of 10 nM cAMP as described for PDE4 in Table 1.
PDE7 purified from Hut78 human T cells, sequence (Q13946 whole entry): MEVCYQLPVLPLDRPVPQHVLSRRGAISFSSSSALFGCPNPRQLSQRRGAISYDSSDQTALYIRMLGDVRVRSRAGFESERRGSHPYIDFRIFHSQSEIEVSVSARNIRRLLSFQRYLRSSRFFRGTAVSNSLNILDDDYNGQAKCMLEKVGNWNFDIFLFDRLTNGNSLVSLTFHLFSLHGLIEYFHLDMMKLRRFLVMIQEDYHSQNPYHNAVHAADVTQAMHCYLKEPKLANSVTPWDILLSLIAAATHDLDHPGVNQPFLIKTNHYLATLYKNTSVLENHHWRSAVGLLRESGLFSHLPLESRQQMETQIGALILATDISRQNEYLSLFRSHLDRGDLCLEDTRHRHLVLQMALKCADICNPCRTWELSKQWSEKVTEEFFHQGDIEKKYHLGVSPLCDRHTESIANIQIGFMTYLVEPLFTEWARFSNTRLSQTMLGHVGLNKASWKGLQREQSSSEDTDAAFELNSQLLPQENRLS

human PDE2, sequence (O00408 whole entry): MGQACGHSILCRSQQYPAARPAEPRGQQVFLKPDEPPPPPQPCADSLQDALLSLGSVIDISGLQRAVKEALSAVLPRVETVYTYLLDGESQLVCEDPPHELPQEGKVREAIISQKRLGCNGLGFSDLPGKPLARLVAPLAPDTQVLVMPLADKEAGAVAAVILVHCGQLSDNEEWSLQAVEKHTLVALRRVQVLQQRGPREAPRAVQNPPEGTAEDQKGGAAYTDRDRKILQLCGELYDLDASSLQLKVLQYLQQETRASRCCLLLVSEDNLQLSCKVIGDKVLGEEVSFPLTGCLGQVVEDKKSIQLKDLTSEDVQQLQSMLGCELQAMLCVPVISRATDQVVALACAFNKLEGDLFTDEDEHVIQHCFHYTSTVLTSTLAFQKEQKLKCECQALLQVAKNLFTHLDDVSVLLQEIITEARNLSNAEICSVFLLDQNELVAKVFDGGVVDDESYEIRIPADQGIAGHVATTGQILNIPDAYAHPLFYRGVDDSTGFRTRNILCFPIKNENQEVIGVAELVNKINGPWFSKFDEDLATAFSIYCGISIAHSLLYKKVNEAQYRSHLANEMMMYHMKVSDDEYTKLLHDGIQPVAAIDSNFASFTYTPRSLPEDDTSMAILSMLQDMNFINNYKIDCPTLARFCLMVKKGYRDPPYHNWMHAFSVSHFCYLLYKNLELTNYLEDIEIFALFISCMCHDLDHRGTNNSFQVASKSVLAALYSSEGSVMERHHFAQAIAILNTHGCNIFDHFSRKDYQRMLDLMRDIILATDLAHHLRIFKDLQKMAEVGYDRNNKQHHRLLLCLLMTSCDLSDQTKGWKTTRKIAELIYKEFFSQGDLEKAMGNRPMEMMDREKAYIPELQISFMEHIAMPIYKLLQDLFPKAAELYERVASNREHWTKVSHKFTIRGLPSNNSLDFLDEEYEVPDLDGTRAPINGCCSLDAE
PDE3 from human platelets, sequence (Q14432 whole entry): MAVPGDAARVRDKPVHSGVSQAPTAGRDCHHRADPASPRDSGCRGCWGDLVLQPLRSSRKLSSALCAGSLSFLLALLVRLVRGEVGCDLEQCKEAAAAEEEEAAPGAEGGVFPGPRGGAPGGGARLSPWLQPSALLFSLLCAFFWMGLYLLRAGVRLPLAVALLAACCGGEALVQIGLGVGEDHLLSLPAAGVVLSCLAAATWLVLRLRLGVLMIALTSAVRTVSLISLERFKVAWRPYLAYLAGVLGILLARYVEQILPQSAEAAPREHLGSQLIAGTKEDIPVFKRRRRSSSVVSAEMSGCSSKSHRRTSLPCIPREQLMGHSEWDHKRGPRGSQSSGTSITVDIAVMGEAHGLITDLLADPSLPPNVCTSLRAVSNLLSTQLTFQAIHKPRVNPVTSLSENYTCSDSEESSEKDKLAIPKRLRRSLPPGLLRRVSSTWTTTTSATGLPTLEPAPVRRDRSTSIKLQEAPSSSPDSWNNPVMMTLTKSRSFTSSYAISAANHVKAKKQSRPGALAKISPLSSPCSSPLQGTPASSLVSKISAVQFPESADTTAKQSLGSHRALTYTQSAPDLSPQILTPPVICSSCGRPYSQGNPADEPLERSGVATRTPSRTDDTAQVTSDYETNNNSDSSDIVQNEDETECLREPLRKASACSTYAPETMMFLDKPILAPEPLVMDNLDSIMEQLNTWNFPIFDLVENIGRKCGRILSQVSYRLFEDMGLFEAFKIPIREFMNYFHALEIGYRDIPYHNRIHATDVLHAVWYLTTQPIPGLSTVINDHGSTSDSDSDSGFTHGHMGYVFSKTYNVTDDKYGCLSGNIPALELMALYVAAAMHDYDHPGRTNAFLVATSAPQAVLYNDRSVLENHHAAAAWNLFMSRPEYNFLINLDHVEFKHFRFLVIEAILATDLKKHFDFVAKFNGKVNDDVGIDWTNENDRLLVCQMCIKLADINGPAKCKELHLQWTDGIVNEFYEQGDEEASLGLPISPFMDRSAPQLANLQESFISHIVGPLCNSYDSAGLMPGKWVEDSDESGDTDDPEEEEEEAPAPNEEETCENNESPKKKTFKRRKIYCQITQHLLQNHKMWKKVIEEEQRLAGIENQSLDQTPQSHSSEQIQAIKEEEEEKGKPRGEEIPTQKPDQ

Turning to `CCOc1cc([C@H](CS(C)(=O)=O)N2C(=O)c3cccc(NC(C)=O)c3C2=O)ccc1OC` [Compound B], in assay [1], the “PDE Specificity Ratio PDE4/PDE3” value is reported as over 45 fold. In addition, the “PDE Specificity Ratio PDE4/PDE1” value in the assay with bovine PDE1 is listed as over 50 fold. Besides, the “PDE Specificity Ratio PDE4/PDE2” value on human PDE2 is on record as over 260 fold. Further, in assay [2], the “PDE Specificity Ratio PDE4/PDE6” value was over 250 fold. The “PDE Specificity Ratio PDE4/PDE5” value in assay [3] was over 39000 fold.

Regarding `CCOc1cc(C(CS(C)(=O)=O)N2C(=O)c3cccc(NC(C)=O)c3C2=O)ccc1OC` (racemic) [Racemic Compound, 2-[1-(3-Ethoxy-4-methoxyphenyl)-2-methylsulfonylethyl]-4-acetylaminoisoindoline-1,3-dione], the “PDE Specificity Ratio PDE7 IC50/PDE4 IC50” value in assay [4] stood at 270 fold. Also, in assay [1], the “PDE Specificity Ratio PDE4/PDE3” value was over 670 fold. The “PDE Specificity Ratio PDE4/PDE1” value in the assay with bovine PDE1 is over 2700 fold. The “PDE Specificity Ratio PDE4/PDE2” value at human PDE2 is over 800 fold. In assay [3], the “PDE Specificity Ratio PDE4/PDE5” value is reported as over 12000 fold.
